Measured values as given in US20240382443A1, “GENERATION OF S-NITROSOACETYLCYSTEINE” (The UAB Research Foundation, priority 2023, published 2024).

Legend:
[1] = tested on: rats with severe Sugen-hypoxia-induced pulmonary hypertension; assay: Right ventricular systolic pressure (RVSP) after inhaled aerosol in Sugen-hypoxia pulmonary hypertension rats; type: in vivo, Sprague Dawley rats
Protocol: Stock SNOAC was prepared by reacting an appropriate amount of sodium nitrite and NAC in water just before use. The pH was adjusted to 7.0 with alkaline solution and then transferred to an Aeroneb Nebulizer (Kent Scientific). Severe PH was induced in Sprague Dawley rats by subcutaneous injection of vascular endothelial growth factor receptor antagonist Sugen 5416 followed by exposure to hypoxia (10% O2) for 3 weeks and normoxia for 4 weeks. Right ventricular systolic pressure (RVSP) was measured invasively in a closed-chest, spontaneously breathing rat model as an indicator of pulmonary arterial pressure. Rats were anesthetized with 1.5% isoflurane in air with a flow rate of 2 L/min. A blood pressure catheter was inserted into the right ventricle through the jugular vein, and baseline RVSP was measured. After the pressure stabilized, the aerosolized drug was introduced into the isoflurane line for 5 minutes.

[2] = Plasma S-nitrosothiols and nitrite after sublingual SNOAC in rats; type: in vivo
Protocol: Because the chemicals cannot be placed in the buccal cavity of experimental animals, SNOAC was prepared in a test tube just before use and then placed in the sublingual space. Normotensive rats were anesthetized and the femoral artery was cannulated to collect blood. Stock SNOAC at 30 μmoles/mL was prepared by reacting sodium nitrite with NAC at the molar ratio of 1:2 in water just before use. It is believed that all of the nitrite is converted to SNOAC under these conditions. After baseline blood samples were collected in heparinized tubes, approximately 50 μL of SNOAC solution (0.4 mg nitrite and 1.87 mg NAC/kg body weight) was placed under the tongue of anesthetized rats. Blood was collected at 10-minute intervals. The plasma was separated, and nitrite and total S-nitrosothiols in plasma were determined. […] There was no change in plasma nitrite levels.
In this study, the sublingual and buccal cavity medication route of SNOAC generation and administration for acute dosing was first examined. A dose of NAC and sodium nitrite with 25 μL of water was placed under the tongue of mice or rats. Specifically, a dose of 0.1 mg of nitrite and 10 mg of NAC was placed under the tongue of the subject, blood was collected varying time points, and total S-nitrosothiols (SNO) were measured by a chemiluminescence method. […]

[3] = tested on: angiotension-2—induced acute PH; assay: Angiotensin-2-induced acute pulmonary hypertension in control rats; type: in vivo; settings: inhalation
[4] = Total S-nitrosothiols in blood after sublingual nitrite and NAC in mice; type: in vivo; settings: 0.1 mg nitrite and 10 mg NAC
Protocol: FIG. 14 is a graphical representation of the transfer of the SNOAC that is generated in the sublingual space to blood circulation in mice. The concentration of total S-nitrosothiols at 1, 30 min., and 60 min. was determined after mice were sublingually administered 0.1 mg nitrite and 10 mg NAC in 50 μL of water, generating SNOAC.
In this study, the sublingual and buccal cavity medication route of SNOAC generation and administration for acute dosing was first examined. A dose of NAC and sodium nitrite with 25 μL of water was placed under the tongue of mice or rats. Specifically, a dose of 0.1 mg of nitrite and 10 mg of NAC was placed under the tongue of the subject, blood was collected varying time points, and total S-nitrosothiols (SNO) were measured by a chemiluminescence method. […] As shown in FIG. 14 for mice and FIG. 4 for rats, SNOAC is generated in the buccal cavity and absorbed into circulation.

[5] = RSNO decomposition in water monitored by spectra; type: physicochemical; settings: over 15 hours; from 15 mM sodium nitrite and 60 mM N-acetylcysteine in water
Protocol: FIG. 11 is a graphical representation of generation and decomposition of S-nitroso-N-acetylcysteine (RSNO). In the left panel, RSNO generation is show when 15 mM sodium nitrite is reacted with 60 mM N-acetylcysteine (RSH) in water. All nitrite is converted instantly to RSNO. In the right panel, RSNO decomposition is monitored by recording spectra at 1.5 hour intervals over 15 hours. Approximately 50% of the RSNO was decomposed over the 15 hours.
Nitrite is converted to […] by reacting with RSH in water. RSNOs have potent vasodilatory, anti-inflammatory, and antiplatelet activities. As shown by the comparison of generation of RSNO in FIG. 11, left panel, with degradation in FIG. 11, right panel, the instability of RSNO after preparation is a major hindrance to use them as NO donors to restore the NO bio-availability that decrease with aging and pathophysiological conditions of cardiovascular diseases. Therefore, RSNOs have proven easy to prepare, but not typically stable after preparation.

cardiac proteins = assay: SNO-RAC proteomics of rat heart tissue; type: in vivo, rats; settings: single oral gavage dose, hearts collected after 1 hour
Protocol: FIG. 12 is a graphical representation of proteomics analysis of rat heart tissue. A single dose of nitrite and NAC at neutral pH were administered by oral gavage to rats. Rats were sacrificed after 1 hour and the hearts were collected. Total RSNO sites were identified using the a SNO-RAC (resin assisted capture) protocol. Proteomics was performed using liquid chromatography-tandem mass spectrometry (LC-MS/MS) analysis.

[6] = tested on: mice with L-NAME-induced systemic hypertension; assay: L-NAME-induced systemic hypertension in mice, drinking water; type: in vivo; settings: L-NAME-treated mice, NAC 0.5 g/L or nitrite 20 mg/L alone, 2 months
Protocol: L-NAME (N-nitro-L-arginine methyl ester) is an inhibitor of eNOS enzyme activity. Administering L-NAME in the drinking water of animals induces systemic hypertension by decreasing NO synthesis in blood vessels. In this study, mice were fed L-NAME alone (0.1 g/L) or L-NAME+NAC (0.5 g/L), L-NAME+nitrite (20 mg/L), or L-NAME+NAC with one of two nitrite doses (i.e., 10 mg/L or 20 mg/L) in drinking water for 2 months. Mean arterial blood pressure was measured by the tail-cuff method (Kent Scientific, Torrington, CT).
Acute doses of nitrite (0.1 to 1 mg/kg B. wt.) or NAC (10 to 50 mg/kg B. wt.) alone or in combination were administered sublingually or by oral gavage to anesthetized Wistar rats and blood collected at varying time points for measurement of total plasma SNOs by chemiluminescence method. BP was measured by femoral intra-arterial catheterization. Chronic studies were carried out in an L-NAME (eNOS inhibitor) induced hypertensive mouse model. Mice were randomized into five groups 1) control, 2) control L-NAME (0.1 g/L), 3) L-NAME+nitrite (20 mg/L), 4) L-NAME+nitrite (10 mg/L)+NAC (0.5 g/L), 5) L-NAME+nitrite (20 mg/L)+NAC 0.5 g/L) in drinking water for 2 months. Plasma S-nitrosothiols blood pressure (tail cuff method), arterial stiffness (Doppler method) were determined.

eNOS^-/- mice = assay: Tail-cuff MAP in eNOS-/- hypertensive mice, drinking water; type: in vivo; settings: nitrite 50 mg/L, NAC 500 mg/L in drinking water for 2 months, versus eNOS-/- control
Protocol: 15-week-old wild-type (WT) and eNOS^-/- mice were divided into 5 groups. (1) WT control, (2) eNOS^-/- control, (3) eNOS^-/-+nitrite, (4) eNOS^-/-+NAC, and (5) eNOS^-/-+nitrite+NAC. NAC was dissolved in the drinking water, and pH was adjusted to 7.0 to prevent initial nitrite reaction with NAC. The mice were given pharmacological doses of nitrite (50 mg/L) and NAC (500 mg/L) individually or in combination for 2 months.

normotensive rats [7] = assay: Mean arterial pressure after oral gavage in normotensive rats; type: in vivo; settings: 0.5 mL
Protocol: The mean arterial pressure (MAP) was continually monitored.
The MAP in rats was measured as described for sublingual administration. After baseline blood pressure was measured, 0.5 mL of nitrite alone, NAC alone, or the nitrite−NAC mixture was administered by gavage.

[8] = tested on: Spontaneously Hypertensive Rats (SHR); assay: Tail-cuff MAP in SHR and WKY rats, drinking water; type: in vivo; settings: NAC 1.2 g/L, nitrite 60 mg/L in drinking water, end of 3 months, versus SHR control
Protocol: SHR rats are a well-established model used to study essential hypertension. Normotensive Wistar Kyoto rats (WKY) were used as a control group. Rats were fed with NAC (1.2 g/L), nitrite (60 mg/L), or a combination of the two in drinking water for 3 months. Mean arterial blood pressure was measured by the tail-cuff method once each month.

normotensive rats [9] = assay: Femoral mean arterial pressure after sublingual administration in normotensive rats; type: in vivo; settings: 0.2, 0.4 or 0.8 mg nitrite/kg with 10 mg NAC
Protocol: Normotensive rats were anesthetized with isoflurane. The femoral artery was catheterized with a Micro-Tip Catheter Transducer (AD Instruments, Houston, TX) for monitoring of blood pressure. Once the baseline blood pressure was stabilized, at approximately 30 minutes, rats were treated sublingually with 50 μL of SNOAC generated by reacting 0.2 mg, 0.4 mg, or 0.8 mg nitrite/kg body weight with a fixed concentration of 10 mg NAC (FIG. 5). Control rats were treated with nitrite or NAC alone. The mean arterial pressure (MAP) was continually monitored.

[10] = Plasma and organ RSNOs after oral gavage of nitrite in neutral NAC; type: in vivo, rats; settings: single agent alone, nitrite 1.5 mg/kg, NAC 50 mg/kg
Protocol: […] BP was measured by femoral intra-arterial catheterization. Chronic studies were carried out in an L-NAME (eNOS inhibitor) induced hypertensive mouse model. Mice were randomized into five groups 1) control, 2) control L-NAME (0.1 g/L), 3) L-NAME+nitrite (20 mg/L), 4) L-NAME+nitrite (10 mg/L)+NAC (0.5 g/L), 5) L-NAME+nitrite (20 mg/L)+NAC 0.5 g/L) in drinking water for 2 months. Plasma S-nitrosothiols blood pressure (tail cuff method), arterial stiffness (Doppler method) were determined.

Compound | RVSP course after cessation of inhalation ([1]; hypertensive rats) | effect on RVSP of inhaled precursor molecules alone ([1]; hypertensive rats) | MAP [6] | MAP (eNOS^-/- mice) | MAP (normotensive rats [7]) | MAP [8] | mean arterial pressure (MAP) (normotensive rats [9]) | further results
nitric oxide [NO gas] | rapidly bounced back to baseline after cessation | – | – | – | – | – | – | RVSP during inhalation of NO gas ([1]; hypertensive rats, 30 ppm inhaled for 5 minutes): rapid decrease in RVSP
CC(=O)N[C@@H](CSN=O)C(=O)O [SNOAC, S-nitroso-N-acetylcysteine] | slowly increased over the following 40 minutes, while still remaining lower than the baseline value | – | – | – | – | – | – | plasma nitrite levels ([2]; after sublingual SNOAC): no change; total plasma S-nitrosothiols (SNO) over time ([2]; rats, sublingual): increased with increasing the time; RVSP change in control animals ([1]; control animals, baseline RVSP 30 mmHg): did not change significantly; RVSP after another dose of aerosolized drug after 40 minutes ([1]; hypertensive rats): sustained decrease in RVSP that was longer than after the initial dose; time the RVSP decrease was sustained at the same level after cessation of drug ([1]; hypertensive rats): 5 min; RVSP after inhalation of aerosolized drug ([1]; hypertensive rats, baseline RVSP 125 mmHg, inhalation for 5 minutes): 96 mmHg; life span (SNOAC life span): about 30 min; angiotensin-2-induced acute PH [3]: significantly decreased; total S-nitrosothiols (SNO) over time [4]: increased with increasing the time; RSNO decomposed [5]: Approximately 50%; S-nitrosylation of cardiac proteins (cardiac proteins): increased with increasing the dose of RSNO
CC(=O)N[C@@H](CS)C(=O)O [NAC, N-acetylcysteine] | – | no effect | no significant change | no significant change | neither nitrite nor NAC alone altered the blood pressure | modestly decreased | no change | increase in plasma RSNOs [10]: no change
O=NO [nitrite, sodium nitrite] | – | no effect | no significant change | no significant change | neither nitrite nor NAC alone altered the blood pressure | no effect | no change | effect on PH at higher doses ([1]; even at higher doses): No effect
